# Primed or numbered codes have the meaning given here. Where no end group is shown, it is not given here. fluorescein″ = fluorescein label on the peptide (N-terminal, fluorescein-labeled peptide)
# T1: human ERα (Homo sapiens, UniProt P03372)
# T1 sequence (P03372 1-595): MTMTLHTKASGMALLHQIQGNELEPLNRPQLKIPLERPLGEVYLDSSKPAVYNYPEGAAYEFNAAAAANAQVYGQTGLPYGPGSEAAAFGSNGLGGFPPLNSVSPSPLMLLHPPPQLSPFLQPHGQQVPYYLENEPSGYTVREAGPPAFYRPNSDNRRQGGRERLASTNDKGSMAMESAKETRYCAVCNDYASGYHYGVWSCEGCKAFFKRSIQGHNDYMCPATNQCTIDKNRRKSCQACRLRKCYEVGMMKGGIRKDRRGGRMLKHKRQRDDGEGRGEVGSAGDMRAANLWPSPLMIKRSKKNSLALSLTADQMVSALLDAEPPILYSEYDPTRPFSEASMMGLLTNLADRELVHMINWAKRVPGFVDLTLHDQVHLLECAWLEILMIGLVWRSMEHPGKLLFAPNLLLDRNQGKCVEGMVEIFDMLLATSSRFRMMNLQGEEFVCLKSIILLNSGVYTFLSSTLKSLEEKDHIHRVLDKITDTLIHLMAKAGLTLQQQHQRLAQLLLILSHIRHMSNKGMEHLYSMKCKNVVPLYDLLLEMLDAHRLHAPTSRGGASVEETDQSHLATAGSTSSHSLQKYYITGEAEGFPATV
# T2: wild-type ERα LBD (Homo sapiens, UniProt P03372)
# T2 sequence (P03372 302-552): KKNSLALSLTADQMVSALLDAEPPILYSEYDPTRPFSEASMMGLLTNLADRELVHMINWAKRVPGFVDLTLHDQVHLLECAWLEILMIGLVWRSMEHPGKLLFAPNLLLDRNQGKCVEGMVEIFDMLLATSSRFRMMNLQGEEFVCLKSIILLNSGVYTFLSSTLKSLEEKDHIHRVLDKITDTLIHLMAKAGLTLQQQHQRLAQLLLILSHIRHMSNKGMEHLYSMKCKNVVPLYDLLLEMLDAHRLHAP
# T3: wt-ERα LBD (wild-type estrogen receptor α ligand-binding domain, amino acids 302–552) (human, UniProt P03372 302-552)
# T3 construct: also called wild-type ERα LBD; apo-ERα
# T3 sequence (looked up): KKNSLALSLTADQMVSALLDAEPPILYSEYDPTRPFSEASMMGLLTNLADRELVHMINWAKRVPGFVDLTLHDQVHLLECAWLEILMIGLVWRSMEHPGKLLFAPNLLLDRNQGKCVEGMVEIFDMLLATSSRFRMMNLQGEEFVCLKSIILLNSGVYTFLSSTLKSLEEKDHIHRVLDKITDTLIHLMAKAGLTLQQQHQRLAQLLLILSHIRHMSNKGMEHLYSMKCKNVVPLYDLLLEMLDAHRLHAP
# Key:
# [1] = test system: ER; set-up: method as in Wilson et al. 2004; details: ref Wilson et al. 2004; cited from earlier work
# [2] = target: T1, human ERα; test: HGELN-ERα luciferase transactivation assay; details: for relative activation of the two ER subtypes: HGELN-ERα versus HGELN-ERβ, full-length receptors; for agonistic potential in words, FL-ERα: HGELN-ERα, full-length receptor
# [3] = test system: ΔAB-ERβ; test: HGELN-ΔAB-ERβ luciferase transactivation assay
# [4] = target: human ERβ (Homo sapiens, UniProt Q92731); test: HGELN-ERβ luciferase transactivation assay; details: full-length receptor
# [5] = target: wild-type ERβ LBD (Homo sapiens, UniProt Q92731); test: fluorescence anisotropy, SRC-1 NR2 peptide recruitment by ERβ LBD; details: class from Kd of SRC-1 peptide for ERβ LBD
# [6] = target: T2, wild-type ERα LBD; test: fluorescence anisotropy, SRC-1 NR2 peptide recruitment by ERα LBD; details: class from Kd of SRC-1 peptide for ERα LBD
# [7] = test system: ΔAB-ERα; test: HGELN-ΔAB-ERα luciferase transactivation assay
# [8] = target: T3, wt-ERα LBD (wild-type estrogen receptor …); test: fluorescence polarisation; fluorescence anisotropy as a1, with 4-OP at 2 molar equivalents of the highest protein concentration; details: both partners purified
# [9] = target: T4, wt-ERβ LBD (wild-type estrogen receptor β ligand-binding domain, amino acids 261–502) (human, UniProt Q92731 261-502); test: fluorescence polarisation; fluorescence anisotropy as a1, with BP-2 at 2 molar equivalents of the highest protein concentration; details: both partners purified
# T4 construct: also called wild-type ERβ LBD; apo-ERβ
# [10] = target: T4, wt-ERβ LBD (wild-type estrogen receptor …); test: fluorescence polarisation; fluorescence anisotropy as a1, with α-ZA at 2 molar equivalents of the highest protein concentration; details: both partners purified
# [11] = target: T3, wt-ERα LBD (wild-type estrogen receptor …); test: as above; details: both partners purified
# Chain of wild-type ERβ LBD (Q92731 261-502): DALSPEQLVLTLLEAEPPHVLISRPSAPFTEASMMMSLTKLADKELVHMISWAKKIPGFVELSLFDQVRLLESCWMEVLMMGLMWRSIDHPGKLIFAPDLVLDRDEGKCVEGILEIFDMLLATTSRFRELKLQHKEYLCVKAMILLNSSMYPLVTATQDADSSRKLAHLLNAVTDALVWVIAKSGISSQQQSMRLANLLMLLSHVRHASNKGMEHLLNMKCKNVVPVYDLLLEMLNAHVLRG
# T4 sequence (Q92731 261-502): as above
# Chain of human ERβ (Q92731 whole entry, the tested form may be a part): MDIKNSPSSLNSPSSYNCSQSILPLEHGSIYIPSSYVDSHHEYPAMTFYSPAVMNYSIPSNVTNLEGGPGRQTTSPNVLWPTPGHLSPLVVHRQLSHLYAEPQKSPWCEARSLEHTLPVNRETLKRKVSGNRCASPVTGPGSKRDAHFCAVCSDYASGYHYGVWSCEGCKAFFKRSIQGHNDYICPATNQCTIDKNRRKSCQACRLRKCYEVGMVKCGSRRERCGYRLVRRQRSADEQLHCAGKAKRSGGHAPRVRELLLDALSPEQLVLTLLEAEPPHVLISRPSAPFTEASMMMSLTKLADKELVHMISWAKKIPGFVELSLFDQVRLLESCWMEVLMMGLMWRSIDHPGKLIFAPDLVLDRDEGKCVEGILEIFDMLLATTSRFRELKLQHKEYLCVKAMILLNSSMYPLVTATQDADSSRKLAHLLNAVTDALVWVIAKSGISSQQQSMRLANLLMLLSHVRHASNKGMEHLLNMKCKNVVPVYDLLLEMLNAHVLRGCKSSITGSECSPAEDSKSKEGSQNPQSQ
molecule,measurement,setting,value
"Oc1ccc(C(c2ccc(O)cc2)C(Cl)(Cl)Cl)cc1 [HPTE, 2,2-bis(p-hydroxyphenyl)-1,1,1-trichloroethane]",ER activity reported in other studies,[1],agonistic properties
"Oc1ccc(C(=C(Cl)Cl)c2ccc(O)cc2)cc1 [BPC, bisphenol C]",relative activation of the two ER subtypes,[2],activated ERα more efficiently than ERβ
"CC(C)(c1cc(Cl)c(O)c(Cl)c1)c1cc(Cl)c(O)c(Cl)c1 [TCBPA, tetrachlorobisphenol A]","agonistic potential in words, ΔAB-ERβ",[3],ERβ antagonists
same,"agonistic potential in words, FL-ERβ",[4],ERβ antagonists
"O=C(c1ccc(O)cc1O)c1ccc(O)cc1O [BP-2, benzophenone-2]","agonistic potential in words, ΔAB-ERβ",[3],full agonist
same,relative activation of the two ER subtypes,[2],activated the two ER subtypes equally
same,"agonistic potential in words, FL-ERα",[2],full agonist
same,"agonistic potential in words, FL-ERβ",[4],full agonist
same,"ligand class by SRC-1 peptide recruitment, ERβ",[5],strong agonists (strong agonists (Kd ≤ 1 μM))
same,"ligand class by SRC-1 peptide recruitment, ERα",[6],strong agonists (strong agonists (Kd ≤ 1 μM))
same,"agonistic potential in words, ΔAB-ERα",[7]; HGELN-ΔAB-ERα,full agonist
same,AF-1 dependence of activity,[7]; full-length versus ΔAB (AF-1 deleted) ERs,fully AF-1–independent activity
"ClC(Cl)=C(c1ccc(Cl)cc1)c1ccc(Cl)cc1 [DDE, dichlorodiphenyldichloroethylene]","ligand class by SRC-1 peptide recruitment, ERα",[6],partial agonists (partial agonists (1 μM ≤ Kd ≤ values for apo-ERα or -ERβ))
"CC(C)(C)CC(C)(C)c1ccc(O)cc1 [4-OP, 4-tert-octylphenol]","ligand class by SRC-1 peptide recruitment, ERβ",[5],partial agonists (partial agonists (1 μM ≤ Kd ≤ values for apo-ERα or -ERβ))
"CCCCOC(=O)c1ccc(O)cc1 [Butylparaben, butylparaben]","ligand class by SRC-1 peptide recruitment, ERβ",[5],partial agonists (partial agonists (1 μM ≤ Kd ≤ values for apo-ERα or -ERβ))
"C[C@H]1CCC[C@H](O)CCCCCc2cc(O)cc(O)c2C(=O)O1 [α-ZA, α-zearalanol]","agonistic potential in words, FL-ERα",[2],efficiently activated
same,"ligand class by SRC-1 peptide recruitment, ERα",[6],strong agonists (strong agonists (Kd ≤ 1 μM))
"CC(C)(c1ccc(O)cc1)c1ccc(O)cc1 [BPA, bisphenol A]","ligand class by SRC-1 peptide recruitment, ERβ",[5],partial agonists (partial agonists (1 μM ≤ Kd ≤ values for apo-ERα or -ERβ))
same,"ligand class by SRC-1 peptide recruitment, ERα",[6],partial agonists (partial agonists (1 μM ≤ Kd ≤ values for apo-ERα or -ERβ))
"{fluorescein″}-RHKILHRLLQEGS (also called fluorescein-labeled SRC-1 NR2 peptide; SRC-1 NR2 peptide; source: synthetic peptide, bought: EZbiolab) [fluorescein-RHKILHRLLQEGS peptide corresponding to the NR box 2-binding motif of SRC-1]",Kd,[8],≥ 1000 nM
same,Kd,[9],≤ 1000 nM
same,Kd,[10],≥ 1000 nM
same,Kd,[11],≤ 1000 nM
